From patent US20230398130A1, “METHODS AND COMPOSITIONS FOR DIFFERENTIATING STEM CELLS” (Massachusetts Institute of Technology, priority 2020, published 2023)

What was measured:
ISC-enriched organoids [1] = test: Primary screen, 384-well 2.5-D organoid differentiation (ENR+CD, 6 days): basal lysozyme secretion (LYZ.NS); assay type: cell-based, murine; conditions: for Dose.FC.LYZ.NS (log 2 fold change, basal lysozyme secretion): vs plate median
Description: (§1) High-throughput screening.

ISC-enriched organoids [2] = test: Primary screen, 384-well 2.5-D organoid differentiation (ENR+CD, 6 days): carbachol-induced lysozyme secretion (LYZ.S); assay type: cell-based, murine; conditions: vs plate median
Description: as §1

ISC-enriched organoids [3] = test: Primary screen, 384-well 2.5-D organoid differentiation (ENR+CD, 6 days, Target Selective Inhibitor Library, vs whole-plate median): ATP (CellTiter-Glo 3D, CTG); conditions: for Dose.FC.CTG (log 2 fold change, ATP): vs plate median

Compound | Z.LYZ.NS (standard z score) (ISC-enriched organoids [1]; dose 0.08 uM) | Dose.FC.LYZ.NS (log 2 fold change, basal lysozyme secretion) (ISC-enriched organoids [1]; dose 0.08 uM) | Z.LYZ.NS (standard z score) (ISC-enriched organoids [1]; dose 0.40 uM) | Dose.FC.LYZ.NS (log 2 fold change, basal lysozyme secretion) (ISC-enriched organoids [1]; dose 0.40 uM) | Z.LYZ.NS (standard z score) (ISC-enriched organoids [1]; dose 2.00 uM) | Dose.FC.LYZ.NS (log 2 fold change, basal lysozyme secretion) (ISC-enriched organoids [1]; dose 2.00 uM) | Z.LYZ.NS (standard z score) (ISC-enriched organoids [1]; dose 10.00 uM) | Dose.FC.LYZ.NS (log 2 fold change, basal lysozyme secretion) (ISC-enriched organoids [1]; dose 10.00 uM) | Dose.FC.LYZ.S (log 2 fold change, carbachol-induced lysozyme secretion) (ISC-enriched organoids [2]; dose 0.08 uM) | Dose.FC.LYZ.S (log 2 fold change, carbachol-induced lysozyme secretion) (ISC-enriched organoids [2]; dose 0.40 uM) | Dose.FC.LYZ.S (log 2 fold change, carbachol-induced lysozyme secretion) (ISC-enriched organoids [2]; dose 2.00 uM) | Dose.FC.LYZ.S (log 2 fold change, carbachol-induced lysozyme secretion) (ISC-enriched organoids [2]; dose 10.00 uM) | Z.CTG (standard z score) (ISC-enriched organoids [3]; dose 0.08 uM) | Dose.FC.CTG (log 2 fold change, ATP) (ISC-enriched organoids [3]; dose 0.08 uM) | Z.CTG (standard z score) (ISC-enriched organoids [3]; dose 0.40 uM) | Dose.FC.CTG (log 2 fold change, ATP) (ISC-enriched organoids [3]; dose 0.40 uM) | Z.CTG (standard z score) (ISC-enriched organoids [3]; dose 2.00 uM) | Dose.FC.CTG (log 2 fold change, ATP) (ISC-enriched organoids [3]; dose 2.00 uM) | Z.CTG (standard z score) (ISC-enriched organoids [3]; dose 10.00 uM) | Dose.FC.CTG (log 2 fold change, ATP) (ISC-enriched organoids [3]; dose 10.00 uM)
CC(/C=C/C(=O)NO)=C\[C@@H](C)C(=O)c1ccc(N(C)C)cc1 [Trichostatin A (TSA)] | −0.554 | −0.064 | −1.697 | −0.195 | −1.334 | −0.153 | −1.298 | −0.149 | −0.124 | −0.254 | −0.210 | −0.202 | 0.457 | 0.191 | −1.913 | −0.801 | −2.159 | −0.904 | −1.974 | −0.826
O=C(O[C@H]1C[C@H]2CC[C@@H](C1)[N+]21CCCC1)C(O)(c1ccccc1)c1ccccc1 [Trospium chloride] | 1.470 | 0.169 | 1.895 | 0.218 | −0.017 | −0.002 | 0.885 | 0.102 | 0.119 | 0.117 | −0.008 | 0.084 | 0.199 | 0.083 | −0.073 | −0.031 | 0.477 | 0.200 | 0.354 | 0.148
CC(C)(C)c1cc(/C=C(\C#N)C(N)=S)cc(C(C)(C)C)c1O [Tyrphostin AG 879] | 0.088 | 0.010 | −0.680 | −0.078 | −0.698 | −0.080 | −0.960 | −0.110 | −0.083 | −0.084 | −0.051 | −0.123 | −0.828 | −0.347 | −0.569 | −0.238 | −0.554 | −0.232 | −0.879 | −0.368
CCO.N#CC(=C(/N)Sc1ccccc1N)/C(C#N)=C(\N)Sc1ccccc1N [U0126-EtOH] | 0.859 | 0.099 | 0.163 | 0.019 | −0.389 | −0.045 | −1.021 | −0.117 | 0.114 | 0.075 | −0.071 | −0.165 | −0.835 | −0.350 | −1.227 | −0.514 | −1.138 | −0.476 | −1.887 | −0.790
